Data reported in patent US9243019B2 (priority 2013, dated 2016).
Read-outs that look alike come from different tables or passages of the source.

Assay type: physicochemical
[1] = Table 3, accelerated for 0 month, hydroxysafflor yellow A per CN102675379A purity 89.9%, sodium salt purity 98.6%
[2] = Table 3, accelerated for 1 month, hydroxysafflor yellow A per CN102675379A purity 89.9%, sodium salt purity 98.6%
[3] = Table 3, accelerated for 2 months, hydroxysafflor yellow A per CN102675379A purity 89.9%, sodium salt purity 98.6%
[4] = Table 3, accelerated for 3 months, hydroxysafflor yellow A per CN102675379A purity 89.9%, sodium salt purity 98.6%
[5] = Table 4, accelerated for 0 month, hydroxysafflor yellow A by acidizing purity 99.2%, sodium salt purity 99.2%
[6] = Table 4, accelerated for 2 months, hydroxysafflor yellow A by acidizing purity 99.2%, sodium salt purity 99.2%
[7] = Table 4, accelerated for 3 months, hydroxysafflor yellow A by acidizing purity 99.2%, sodium salt purity 99.2%

- Content (counting Hydroxyl A) [1]: 89.8%
- Total impurity [1]: 10.1%
- Content (counting Hydroxyl A) [2]: 84.7%
- Total impurity [2]: 14.9%
- Content (counting Hydroxyl A) [3]: 79.2%
- Total impurity [3]: 20.8%
- Content (counting Hydroxyl A) [4]: 71.2%
- Total impurity [4]: 28.6%
- Content (counting Hydroxyl A) [5]: 99.1%
- Total impurity [5]: 0.8%
- Total impurity (Table 4, accelerated for 1 month, hydroxysafflor yellow A by acidizing purity 99.2%, sodium salt purity 99.2%): 5.9%
- Content (counting Hydroxyl A) [6]: 89.2%
- Total impurity [6]: 10.7%
- Content (counting Hydroxyl A) [7]: 81.3%
- Total impurity [7]: 18.6%
SMILES: O=C(/C=C/c1ccc(O)cc1)C1=C(O)C(O)(C2OC(CO)C(O)C(O)C2O)C(O)=C(C2OC(CO)C(O)C(O)C2O)C1=O (stereo not drawn) [Hydroxysafflor yellow A, hydroxysafflor yellow A]
